Experimental data published in PubChem BioAssay AID179 (DTP/NCI, 2004).
“And” between values parts separate entries of the source, which are not always exact repeats. Equal entries are not always repeated. The source made the active and inactive calls.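 How the source made its calls: active means compounds giving half or more protection of infected cells from virus-caused growth loss, again on retest; inactive means the rest.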

Test system: CEM cells HIV-1 protection, formazan growth assay
Assay: NCI AIDS Antiviral Assay
Conditions: for IC50: measured here: growth of uninfected CEM cells
Outline: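 Human CEM cells, uninfected and HIV-1-infected, received five drug concentrations, and growth was read by soluble formazan assay. Compounds giving at least 50% protection were retested; reproducible 100% protection defined confirmed active.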

SMILES	outcome	EC50	IC50
Cc1nc2ccccc2c(=O)n1NC(=O)c1ccc(CS)cc1	inactive		
COC(=O)/C(=N\NC(=O)c1ccccc1O)C(C#N)c1ccccc1 (centres undefined)		> 741 µM	5.62 µM
CCOC(=O)NC(=O)c1cn(CCCCCCCCCCC(=O)N2CCN(CCn3cc(C(=O)NC(=O)OCC)c(=O)[nH]c3=O)CC2)c(=O)[nH]c1=O	inactive		
CCCCCCCCCCCC1N=C(N)NC(CCCO)=C1C(=O)OC (centres undefined)		> 200 µM	3.47 µM
Oc1ccc2cc(SSc3ccc4cc(O)ccc4c3)ccc2c1		> 200 µM	8.13 µM
O=C1C=CC(=O)c2c1ccc1c3ccccc3n(-c3cccc([N+](=O)[O-])c3)c21		> 100 µM	4.79 µM
COc1ccc(/C=C2\NC(=S)N(CN3CCCCC3)C2=O)cc1		> 200 µM	30.9 µM
O=C1CCC2=C(CCCC2=O)N1		> 200 µM	> 200 µM
NC(CSSCC(N)Cc1ccccc1)Cc1ccccc1 (centres undefined)		> 617 µM	20.4 µM
CN1C(=O)C2(Nc3ccccc3N2)c2ccccc21		> 70.8 µM	> 70.8 µM
O=C1C(=O)c2c(nc3ccccn23)-c2ccccc21		> 2 µM	0.427 µM
CCN(CC)c1ccc2c(-c3ccccc3C(=O)O)c3ccc(=[N+](CC)CC)cc-3oc2c1		> 100 µM	9.12 µM and 13.5 µM
O=C(/C(=C/c1ccccc1Cl)c1ccccc1)c1ccccc1		> 8.51 µM	> 8.51 µM
NC(=S)N/N=C\NN/C=N/NC(N)=S		> 200 µM	102 µM
c1cn[nH]c1		> 3630 µM	1780 µM
Cc1ccc([N+](=O)[O-])cc1NC(=O)/C(CC(=O)c1sc(C(N)=S)nc1C)=N\N	inactive		
C=CCCCCC1CCC2CCC(CCCCC=C)N12 (centres undefined)		> 95.5 µM	79.4 µM
CC1(C)C=C(/C=N/Nc2ccc([N+](=O)[O-])cc2)C(C#N)=C(O)C1(C#N)C#N		> 200 µM	53.7 µM
CCC1CC2CN3CCc4c([nH]c5ccc(OC)cc45)C(C(=O)OC)(C2)C13 (centres undefined)	inactive		

SMILES	outcome	EC50	IC50
CCOC(=O)C(=Cc1ccc(-c2ccccc2)cc1)C(=O)OCC		> 16.2 µM	10.5 µM
NC1=NCc2c(sc3c2CCCC3)N1		> 200 µM	18.6 µM
CN(C)C(=NC#N)N(Cc1ccccc1)Cc1ccccc1		> 200 µM	112 µM
C=CCn1c(-c2ccccc2)cs/c1=N\C(P(=O)(O)O)P(=O)(O)O		> 200 µM	> 200 µM
Cc1cc2c(O)c(c1)COCc1cc(C)cc(c1O)COCc1cc(C)cc(c1O)COC2		> 200 µM	138 µM
Cc1nc(C(N)=S)sc1C(=O)C/C(=N/N)C(=O)Nc1cccc(Cl)c1C		> 166 µM	> 166 µM
CCCCCCC(O)CC[C@H]1CCC[C@@H](C)N1 (some centres undefined)	inactive		
O=c1n(-c2ccccc2)c(=O)n2n1C1C3C4C5C3C2C5(F)C41 (centres undefined)		> 200 µM	> 200 µM
Cc1c2c(n(CCc3ccc(Cl)cc3)c1C)NC(c1ccccc1)C(C#N)S2(=O)=O (centres undefined)		> 200 µM	8.91 µM
C=CCOC(=O)Cn1cnc2c(N)ncnc21		> 200 µM	> 200 µM
Cc1c(-c2ccc(N)cc2)c(=O)oc2cc(O)ccc12		> 200 µM	> 200 µM
Cc1c(Cl)cccc1NC(=O)CC1Sc2ccccc2NC1=O (centres undefined)		> 27.5 µM	> 27.5 µM and 15.5 µM
CCC1=NC(C(F)(F)F)(C(F)(F)F)N=C(/N=C(/N)N(C)C(C(C)C)P(=O)(OC(C)C)OC(C)C)O1 (centres undefined)		> 200 µM	> 200 µM
Cc1ccc(/C=C2\CCCC(CN3CCCCC3)C2=O)cc1 (centres undefined)		> 200 µM	0.724 µM
CN1CC(c2ccccc2)=Cc2c1ccc(N)c2N=N		> 200 µM	> 200 µM
Nc1ncnc2c1ncn2[C@H]1C(CO)CC1(F)F (some centres undefined)		> 182 µM	> 182 µM
CCOC(=O)/C(=C/c1ccc(Cl)cc1)N(CC)CC		> 126 µM	> 126 µM
C=CC(C)(C)c1c(OC)oc2ccc(OC)c(C)c2c1=O		> 200 µM	38.9 µM
